Values of other authors as cited in patent publication US8513439B2, “Antidepressant oral pharmaceutical compositions” (Wockhardt Limited, priority 2005, dated 2013).

Assays:
cholinergic receptors = conditions: in vitro
histaminergic receptors = conditions: in vitro
adrenergic receptors = conditions: in vitro
dopaminergic receptors = conditions: in vitro
[1] = in vivo

## CNCC[C@H](Oc1cccc2ccccc12)c1cccs1 [Duloxetine, (S)—N-methyl-3-(1-naphthyloxy)-3-(2-thienyl)propan-1-amine]
pH of 1.0, within one hour
  dosage hydrolyzed to 1-naphthol: 50%
pH of 2.0, in one hour
  dosage degraded to 1-Naphthol: 10%
pH of 4.0
  time for 10% degradation: up to 63 hours
Cholinergic receptors
  affinity for cholinergic receptors: no significant affinity
Monoamine oxidase (MAO)
  inhibition of monoamine oxidase (MAO): does not inhibit
Histaminergic receptors
  affinity for histaminergic receptors: no significant affinity
Adrenergic receptors
  affinity for adrenergic receptors: no significant affinity
Dopaminergic receptors
  affinity for dopaminergic receptors: no significant affinity
[1]
  enzymes metabolizing to inactive metabolites in the liver: CYP1A2 and CYP2D6
  protein bound: > 90%
